Results reported in patent US20120214862A1, “MODULATION OF FACTOR 7 EXPRESSION” (ISIS Pharmaceuticals, Inc., priority 2009, published 2012).
In the oligonucleotide strings, read from the 5' end, every base follows the letter of its sugar. An asterisk marks phosphorothioate; unmarked linkages are phosphodiester. Other units and linkages are bracketed, terminal groups are in braces. A string of capitals states the bases alone. e = 2'-O-(2-methoxyethyl) (MOE); [5mC] = 5-methylcytosine; d = 2'-deoxy (DNA)

What was measured:
human Factor 7 mRNA [1] = experiment: Dose-dependent antisense inhibition of human Factor 7 in HepB3 cells, transfection with electroporation; assay type: cell-based
Procedure, shortened: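 HepB3 cells, 20,000/well, electroporated with gapmers at 3.125–100 μM; about 16 h treatment. Factor 7 mRNA by qRT-PCR with primer probe set RTS 2927, normalized to RIBOGREEN total RNA; percent inhibition versus untreated cells.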

human Factor 7 mRNA [2] = experiment: Antisense inhibition of human Factor 7 mRNA in HepB3 cells, lipofectin, 50 nM, real-time RT-PCR; assay type: cell-based; settings: HepB3 cells; for % Inhibition (human Factor 7 mRNA): Example 1, 50 nM, ~24 h, relative to untreated control cells
Procedure, shortened: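 After transfection of wells containing 4,000 cells, treatment ran for approximately 24 h. RIBOGREEN®-measured total RNA served for normalisation, and inhibition was calculated as a percentage of untreated control.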

[3] = 3.125 μM, 16 hours (Example 7, Table 15)
[4] = 3.125 μM, 16 hours (Example 8, Table 16)
[5] = 6.25 μM, 16 hours (Example 7, Table 15)
[6] = 6.25 μM, 16 hours (Example 8, Table 16)
[7] = 12.5 μM, 16 hours (Example 7, Table 15)
[8] = 12.5 μM, 16 hours (Example 8, Table 16)
[9] = 25 μM, 16 hours (Example 7, Table 15)
[10] = 25 μM, 16 hours (Example 8, Table 16)
[11] = 50 μM, 16 hours (Example 7, Table 15)
[12] = 50 μM, 16 hours (Example 8, Table 16)
[13] = 100 μM, 16 hours (Example 7, Table 15)
[14] = 100 μM, 16 hours (Example 8, Table 16)
[15] = lipofectin, 50 nM antisense oligonucleotide, approximately 24 hours, primer probe set RTS 2927, relative to untreated control

Substance	percent inhibition of Factor 7 mRNA, relative to untreated control cells (human Factor 7 mRNA [1]; [3]) [%]	percent inhibition of Factor 7 mRNA, relative to untreated control cells (human Factor 7 mRNA [1]; [4]) [%]	percent inhibition of Factor 7 mRNA, relative to untreated control cells (human Factor 7 mRNA [1]; [5]) [%]	percent inhibition of Factor 7 mRNA, relative to untreated control cells (human Factor 7 mRNA [1]; [6]) [%]	percent inhibition of Factor 7 mRNA, relative to untreated control cells (human Factor 7 mRNA [1]; [7]) [%]	percent inhibition of Factor 7 mRNA, relative to untreated control cells (human Factor 7 mRNA [1]; [8]) [%]	percent inhibition of Factor 7 mRNA, relative to untreated control cells (human Factor 7 mRNA [1]; [9]) [%]	percent inhibition of Factor 7 mRNA, relative to untreated control cells (human Factor 7 mRNA [1]; [10]) [%]	percent inhibition of Factor 7 mRNA, relative to untreated control cells (human Factor 7 mRNA [1]; [11]) [%]	percent inhibition of Factor 7 mRNA, relative to untreated control cells (human Factor 7 mRNA [1]; [12]) [%]	percent inhibition of Factor 7 mRNA, relative to untreated control cells (human Factor 7 mRNA [1]; [13]) [%]	percent inhibition of Factor 7 mRNA, relative to untreated control cells (human Factor 7 mRNA [1]; [14]) [%]	% Inhibition (human Factor 7 mRNA) (human Factor 7 mRNA [2]; lipofectin) [%]	% Inhibition of human Factor 7 mRNA levels (human Factor 7 mRNA [2]; [15]) [%]	% Inhibition of human Factor 7 mRNA levels (human Factor 7 mRNA [2]; gapmers targeted to nucleobases 15188 to 15211 of SEQ ID NO: 1 (Table 13)) [%]
407935 (antisense eA*eT*eG*e[5mC]*eA*dT*dG*dG*dT*dG*dA*dT*dG*d[5mC]*dT*eT*e[5mC]*eT*eG*eA) [compound 407935]	37	63	47	79	67	84	73	90	80	90	87	91	94	72	79
407939 (antisense eT*eG*e[5mC]*eA*eG*d[5mC]*d[5mC]*d[5mC]*dG*dG*d[5mC]*dA*d[5mC]*d[5mC]*d[5mC]*eA*eG*e[5mC]*eG*eA) [compound 407939]	18	35	28	60	42	60	56	73	68	81	82	83	93	76	
